US9650616B2, “Methods for increasing grain yield” (University of Florida Research Foundation, Inc., priority 2014, dated 2017)
Substitutions are numbered along the chain they refer to. Where “and” joins values, the source holds several entries; their conditions need not be identical. Identical values can stand only once. Like-named read-outs stand apart in the source and are kept apart here.

What was measured:
[1] = target: T1, maize endosperm AGPase variant T142F (Zea mays, UniProt P55241+Q84PF5, T142F); test: Apparent kinetic constants with 3-PGA, 37° C., T142F; type: biochemical
T1 construct: data of Boehlein et al., 2013
T1 sequence (P55241 46-516 T142F): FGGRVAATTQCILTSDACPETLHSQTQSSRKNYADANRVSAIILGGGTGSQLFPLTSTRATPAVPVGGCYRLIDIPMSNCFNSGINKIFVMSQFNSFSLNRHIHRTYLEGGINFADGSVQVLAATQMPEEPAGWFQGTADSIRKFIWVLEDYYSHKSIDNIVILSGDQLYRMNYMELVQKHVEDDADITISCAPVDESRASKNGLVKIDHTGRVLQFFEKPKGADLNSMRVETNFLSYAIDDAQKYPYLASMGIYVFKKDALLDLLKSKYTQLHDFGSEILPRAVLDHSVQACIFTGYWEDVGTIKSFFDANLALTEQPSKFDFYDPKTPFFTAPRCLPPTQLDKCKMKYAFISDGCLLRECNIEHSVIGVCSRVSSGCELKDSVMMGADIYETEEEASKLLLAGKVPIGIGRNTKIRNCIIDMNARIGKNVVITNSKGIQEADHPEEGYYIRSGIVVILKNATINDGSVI
T1 sequence (Q84PF5 1-474): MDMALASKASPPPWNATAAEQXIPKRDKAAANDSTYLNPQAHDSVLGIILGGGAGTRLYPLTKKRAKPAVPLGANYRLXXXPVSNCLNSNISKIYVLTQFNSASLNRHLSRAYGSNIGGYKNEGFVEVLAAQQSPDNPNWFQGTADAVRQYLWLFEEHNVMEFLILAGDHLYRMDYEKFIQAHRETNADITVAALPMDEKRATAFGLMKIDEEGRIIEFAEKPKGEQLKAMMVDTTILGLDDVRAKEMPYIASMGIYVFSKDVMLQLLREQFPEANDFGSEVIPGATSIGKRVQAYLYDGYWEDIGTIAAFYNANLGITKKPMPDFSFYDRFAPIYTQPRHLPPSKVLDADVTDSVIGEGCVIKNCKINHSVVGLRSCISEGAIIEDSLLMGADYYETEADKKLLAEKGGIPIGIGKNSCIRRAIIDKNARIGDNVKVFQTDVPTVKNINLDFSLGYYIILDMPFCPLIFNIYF
Protocol: (§1) An endpoint assay was used to determine the rate of the AGPase reaction by coupling the formation of PPi to a decrease in NADH concentration (Boehlein et al., 2008). […] The Michaelis constants (Km) were obtained by varying one substrate in the presence of saturating concentrations of the second substrate. The activation constants were obtained by varying the activator at fixed levels of both substrates. All reactions were performed at 37° C. and mixes were prewarmed before starting the reaction with enzyme. […] The absorbance at 340 nm was monitored after 30 min and the amount of PPi produced was determined from a standard curve using PPi in complete reaction mixtures lacking AGPase. Blank samples contained complete reaction mixtures without enzyme and the change in absorbance between the blank and the reaction was used to calculate the amount of PPi produced. […]
(§2) The apparent Michaelis constant and maximum velocity of each reaction was calculated from a V vs. S plots using nonlinear regression analysis and the following equation, v=VmaxS/(Km+S), where v is the measured velocity, Vmax is the maximum velocity, S is the substrate concentration. […]
(§3) Each mutant, comprising 1, 2, 3 or 4 changes, was grown in a large scale culture, expressed and purified according to standard procedures (Boehlein et al., 2005). […] Next, the activation constant, Ka, was determined for each of the mutant enzymes. […]

[2] = tested on: maize endosperm AGPase, heat stable ISM mutants; test: Apparent kinetic constants with 3-PGA, 37° C., ISM mutants collectively; type: biochemical, Zea mays
Protocol: An endpoint assay was used to determine the rate of the AGPase reaction by coupling the formation of PPi to a decrease in NADH concentration (Boehlein et al., 2008). […] The Michaelis constants (Km) were obtained by varying one substrate in the presence of saturating concentrations of the second substrate. The activation constants were obtained by varying the activator at fixed levels of both substrates. All reactions were performed at 37° C. and mixes were prewarmed before starting the reaction with enzyme. Reactions were terminated by boiling the reaction mixes for 2 minutes followed by development with 200 μl of coupling reagent (25 mM imidazole pH 7.4, 4 mM MgCl2, 1 mM EDTA, 0.2 mM NADH, 0.725 U aldolase, 0.4 U triose phosphate isomerase, 0.6 U glycerophosphate dehydrogenase, 1 mM fructose 6-phosphate and 0.8 μg purified PPi-PFK per reaction). The absorbance at 340 nm was monitored after 30 min and the amount of PPi produced was determined from a standard curve using PPi in complete reaction mixtures lacking AGPase. Blank samples contained complete reaction mixtures without enzyme and the change in absorbance between the blank and the reaction was used to calculate the amount of PPi produced. Reactions were linear with time and enzyme concentration.
The apparent Michaelis constant and maximum velocity of each reaction was calculated from a V vs. S plots using nonlinear regression analysis and the following equation, v=VmaxS/(Km+S), where v is the measured velocity, Vmax is the maximum velocity, S is the substrate concentration. The activation constant (Ka) was obtained using the following equation: V=Vmin+Vmax*(X)/(Ka+X), where Vmin is the velocity in the absence of activator and Vmax is the change in activity from Vmin to the total velocity. X is the activator concentration, Ka is the activation constant. All linear regression was carried out using the software program Prism (Graph Pad, San Diego Calif.).
Each mutant, comprising 1, 2, 3 or 4 changes, was grown in a large scale culture, expressed and purified according to standard procedures (Boehlein et al., 2005). […] Thus, the effects of these mutations on the kinetic constants are minimal. Next, the activation constant, Ka, was determined for each of the mutant enzymes. Here a decrease in the Ka for each of the mutants of approximately 3-6 fold was observed. This property appears to stem from the D161G change, and includes all enzymes which carry this mutation (Table 8). To be certain the effect is the result of the D161G mutation, and not the result of other single mutant changes, Q96R and Q96G were purified and characterized.

[3] = target: T2, maize endosperm AGPase, evolutionary mutant SH2-E (Zea mays, UniProt P55241+Q84PF5); test: Apparent kinetic constants with 3-PGA, 37° C., SH2-E; type: biochemical; details: read-out: G-1-P Km
T2 construct: data of Boehlein et al., 2013
Protocol: as §1, §2, §3

[4] = tested on: maize endosperm AGPase, evolutionary mutant SH2-E (SH2E); details: cited from earlier work; for Ki: presence of 3-PGA, NC, read-out: Ki (Pi)
[5] = tested on: maize endosperm AGPase, wild type (Maize-wt); details: read-out: G-1-P Km, absence of 3-PGA; cited from earlier work
[6] = tested on: maize endosperm AGPase, evolutionary mutant SH2-E (SH2E); details: cited from earlier work; for Ki: read-out: Ki (Pi)
[7] = target: T1, maize endosperm AGPase variant T142F; details: read-out: G-1-P Km, absence of 3-PGA; cited from earlier work
[8] = tested on: maize endosperm AGPase, wild type; details: cited from earlier work
[9] = target: T2, maize endosperm AGPase, evolutionary mutant SH2-E; details: read-out: G-1-P Km, absence of 3-PGA; cited from earlier work
[10] = tested on: maize endosperm AGPase, wild type; details: cited from earlier work; remark: listed apart in the source
[11] = target: T3, maize endosperm AGPase, large subunit variant GGR (Q96G, D161G, A443R; numbering of SEQ ID NO: 20) (Zea mays, UniProt P55241+Q84PF5, A443R/D161G/Q96G); test: Pi inhibition in the presence of 3-PGA, GGR; type: biochemical
T3 sequence (P55241 46-516 A443R/D161G/Q96G): T1 sequence (P55241 46-516 T142F) with Q51G, F97T, D116G, A398R
T3 sequence (Q84PF5 1-474): T1 sequence (Q84PF5 1-474)
From the text: Inhibition by Pi was then followed in the presence of the activator 3-PGA.

[12] = target: T3, maize endosperm AGPase, large subunit variant GGR (Q96G, D161G, A443R; numbering of SEQ ID NO: 20); test: Pi inhibition in the absence of 3-PGA, GGR; type: biochemical
Protocol: Next, the kinetics of the GGR mutant were further investigated by following Pi inhibition in the presence and absence of 3-PGA. Experiments were performed by keeping both substrates constant and non-saturating at several fixed concentrations of Pi.
A similar examination of the Pi inhibition was then followed with GGR in the absence of 3-PGA.

[13] = absence of 3-PGA, varied substrate G-1-P
[14] = Maize wt, presence of 3-PGA, varied substrate ATP
[15] = Maize wt, presence of 3-PGA, varied substrate G-1-P
[16] = Maize wt, absence of 3-PGA, varied substrate ATP
[17] = Maize wt, absence of 3-PGA, varied substrate G-1-P

T2 sequence (P55241 46-516, change not shown, one chain of several): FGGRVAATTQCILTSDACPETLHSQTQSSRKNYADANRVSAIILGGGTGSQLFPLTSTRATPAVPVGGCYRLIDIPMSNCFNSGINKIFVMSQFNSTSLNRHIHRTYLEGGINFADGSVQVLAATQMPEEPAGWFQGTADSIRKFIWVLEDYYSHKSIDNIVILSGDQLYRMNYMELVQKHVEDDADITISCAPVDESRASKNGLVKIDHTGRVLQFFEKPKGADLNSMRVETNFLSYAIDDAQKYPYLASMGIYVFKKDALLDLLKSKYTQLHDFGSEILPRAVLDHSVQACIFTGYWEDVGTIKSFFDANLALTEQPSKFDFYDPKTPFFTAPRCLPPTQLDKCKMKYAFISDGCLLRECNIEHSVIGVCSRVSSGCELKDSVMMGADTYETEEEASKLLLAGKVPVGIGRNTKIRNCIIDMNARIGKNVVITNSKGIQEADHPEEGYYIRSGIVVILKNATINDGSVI

SMILES: O=C(O)[C@H](O)COP(=O)(O)O [3-PGA]
- Ka for 3-PGA [1]: decreased Ka
- affinity for the activator, 3-PGA ([2]; heat stable mutant): increased affinity
- decrease in the Ka for 3-PGA ([2]; mutants carrying D161G versus wt maize): 3-6 fold

SMILES: O=P(O)(O)O[C@H]1O[C@H](CO)[C@@H](O)[C@H](O)[C@H]1O [G-1-P, glucose-1-phosphate]
- Km [3]: 30 µM
- Km ([4]; read-out: Km (G-1-P), presence of 3-PGA, G-1-P varied, Pi inhibition, NC): 63 µM
- Km [5]: 2800 µM
- Km ([6]; read-out: Km (G-1-P), absence of 3-PGA, G-1-P varied, Pi inhibition): 200 µM
- Km [7]: 90 µM
- largest variation in Km ([2]; mutants versus wt maize, in the presence of 3-PGA): approximately two-fold
- Km ([8]; read-out: Km (G-1-P), Maize wt, presence of 3-PGA, G-1-P varied, Pi inhibition, P-MT): 91 µM
- Km [9]: 30 µM
- Km ([10]; read-out: Km (G-1-P), Maize wt, absence of 3-PGA, G-1-P varied, Pi inhibition, P-MT): 22200 µM
- Km ([10]; wt maize AGPase, absence of activator, Pi inhibition assay, read-out: Km for both substrates): > 20000 µM

SMILES: O=P(O)(O)O [Pi, phosphate]
- Ki ([4]; varied substrate ATP): 7.8 mM
- Ki ([4]; varied substrate G-1-P): 6.62 mM
- Ki ([6]; absence of 3-PGA, varied substrate ATP, NC): 20.9 mM
- Ki [6, 13]: 0.055 mM
- α (Pi interaction factor) [6, 13]: 0.85 +/− 0.17
- β (partiality of Pi inhibition) [6, 13]: 0.44 +/− 0.03
- Ki ([11]; in the presence of 3-PGA, read-out: Ki for Pi): 10 to 20 mM
- α (Pi interaction factor) ([11]; presence of 3-PGA, varied substrate ATP): 2.5 and 2.5 +/− 0.66
- Ki ([11]; presence of 3-PGA, varied substrate ATP, L-MT, read-out: Ki (Pi)): 10.7 mM
- Ki ([11]; presence of 3-PGA, varied substrate G-1-P, NC, read-out: Ki (Pi)): 20.7 mM
- Ki ([8]; Maize wt, presence of 3-PGA, varied substrate ATP, P-MT, read-out: Ki (Pi)): 0.37 mM
- α (Pi interaction factor) [8, 14]: 4.61 +/− 0.70
- β (partiality of Pi inhibition) [8, 14]: 0.83 +/− 0.037
- Ki ([8]; Maize wt, presence of 3-PGA, varied substrate G-1-P, P-MT, read-out: Ki (Pi)): 1 mM
- α (Pi interaction factor) [8, 15]: 0.90 +/− 0.012
- β (partiality of Pi inhibition) [8, 15]: 0.52 +/− 0.023
- Ki ([8]; wt AGPase, in the presence of 3-PGA, read-out: Ki for Pi): 0.5 to 1 mM
- Ki ([10]; Maize wt, absence of 3-PGA, varied substrate ATP, P-MT, read-out: Ki (Pi)): 3.4 mM
- α (Pi interaction factor) [10, 16]: 0.063 +/− 0.034
- β (partiality of Pi inhibition) [10, 16]: 0.52 +/− 0.17
- Ki ([10]; Maize wt, absence of 3-PGA, varied substrate G-1-P, P-MT, read-out: Ki (Pi)): 5.1 mM
- α (Pi interaction factor) [10, 17]: 0.095 +/− 0.065
- β (partiality of Pi inhibition) [10, 17]: 0.92 +/− 0.31
- Ki ([10]; wt maize AGPase, absence of activator, read-out: Ki for Pi): 3 to 5 mM
- Ki for Pi relative to normal concentration of Pi in maize endosperm (~6.5 mM) [12]: 10-20 times
- Ki ([12]; read-out: Ki for Pi with respect to both substrates): 50 to 100 mM
- Ki ([12]; varied substrate G-1-P, read-out: Ki (Pi)): 52.7 mM
